Assay results: ChEMBL document CHEMBL1250451, “Mechanistic insights into a Ca2+-dependent family of alpha-mannosidases in a human gut symbiont” (Nat Chem Biol, 2010)

Key:
Assay type in all cases: protein assay
[1] = target: T1, Alpha-1,2-mannosidase (BT_2199) (Bacteroides thetaiotaomicron) (UniProt Q8A5N9); experiment: Activity of Bacteroides thetaiotaomicron GH92 alpha-mannosidase 2199 assessed as recovery of enzyme activity at 1 mM relative to enzyme activity in presence of calcium
T1 sequence (whole entry): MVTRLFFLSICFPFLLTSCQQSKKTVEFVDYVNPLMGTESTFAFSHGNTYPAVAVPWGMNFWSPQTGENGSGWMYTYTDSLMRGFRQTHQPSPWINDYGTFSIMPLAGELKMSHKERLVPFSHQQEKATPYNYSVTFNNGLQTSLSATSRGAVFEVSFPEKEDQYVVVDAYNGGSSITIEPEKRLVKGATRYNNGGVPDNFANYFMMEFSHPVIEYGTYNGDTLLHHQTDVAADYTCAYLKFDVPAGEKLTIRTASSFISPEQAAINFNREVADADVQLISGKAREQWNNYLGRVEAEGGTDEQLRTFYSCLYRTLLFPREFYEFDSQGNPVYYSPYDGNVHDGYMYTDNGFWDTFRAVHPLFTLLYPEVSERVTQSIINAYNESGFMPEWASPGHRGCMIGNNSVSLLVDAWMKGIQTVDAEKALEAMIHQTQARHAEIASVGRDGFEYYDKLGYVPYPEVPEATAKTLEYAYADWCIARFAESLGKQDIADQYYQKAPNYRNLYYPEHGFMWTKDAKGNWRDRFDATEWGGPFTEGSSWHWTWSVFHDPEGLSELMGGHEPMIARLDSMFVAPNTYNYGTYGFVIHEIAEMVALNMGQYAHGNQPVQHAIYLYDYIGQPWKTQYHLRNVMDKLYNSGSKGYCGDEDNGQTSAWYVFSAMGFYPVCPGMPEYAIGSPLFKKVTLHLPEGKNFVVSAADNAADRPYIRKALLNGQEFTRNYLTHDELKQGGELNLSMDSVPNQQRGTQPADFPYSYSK

[2] = target: T1, Alpha-1,2-mannosidase (BT_2199) (Bacteroides thetaiotaomicron); experiment: Activity of Bacteroides thetaiotaomicron GH92 alpha-mannosidase 2199 assessed as recovery of enzyme activity at 1 mM in presence of 7 mM Be(2+) ions and in presence of 5 mM EDTA in 100 mM pH 7 MOPS buffer relative to enzyme activity in presence of calcium
[3] = target: T2, Alpha-1,2-mannosidase (BT_3990) (Bacteroides thetaiotaomicron) (UniProt Q8A0N1); experiment: Activity of Bacteroides thetaiotaomicron GH92 alpha-mannosidase 3990 assessed as recovery of enzyme activity at 1 mM in presence of 7 mM Sc(3+) ions and in presence of 5 mM EGTA in 100 mM pH 7 MOPS buffer relative to enzyme activity in presence of calcium
T2 sequence (whole entry): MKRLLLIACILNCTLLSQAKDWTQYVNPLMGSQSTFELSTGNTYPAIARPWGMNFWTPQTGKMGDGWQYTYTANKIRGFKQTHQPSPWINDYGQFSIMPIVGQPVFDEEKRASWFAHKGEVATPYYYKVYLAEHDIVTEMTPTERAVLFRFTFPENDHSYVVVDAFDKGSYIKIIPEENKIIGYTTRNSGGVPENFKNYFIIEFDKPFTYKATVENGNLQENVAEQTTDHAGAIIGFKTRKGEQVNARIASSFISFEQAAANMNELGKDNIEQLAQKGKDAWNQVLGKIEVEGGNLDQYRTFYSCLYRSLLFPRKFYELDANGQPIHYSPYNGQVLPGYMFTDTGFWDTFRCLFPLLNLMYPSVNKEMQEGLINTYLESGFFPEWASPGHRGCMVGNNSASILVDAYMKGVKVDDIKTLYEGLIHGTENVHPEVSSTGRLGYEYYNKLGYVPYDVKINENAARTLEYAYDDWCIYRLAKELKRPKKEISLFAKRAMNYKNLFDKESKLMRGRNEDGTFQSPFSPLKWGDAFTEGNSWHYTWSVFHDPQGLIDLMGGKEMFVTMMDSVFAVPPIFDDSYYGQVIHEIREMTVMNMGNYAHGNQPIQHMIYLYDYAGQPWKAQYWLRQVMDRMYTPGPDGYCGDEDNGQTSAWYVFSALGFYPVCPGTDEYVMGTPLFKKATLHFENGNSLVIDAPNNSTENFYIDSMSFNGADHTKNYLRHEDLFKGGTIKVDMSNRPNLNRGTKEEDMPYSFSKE

[4] = target: T1, Alpha-1,2-mannosidase (BT_2199) (Bacteroides thetaiotaomicron); experiment: Activity of Bacteroides thetaiotaomicron GH92 alpha-mannosidase 2199 assessed as recovery of enzyme activity at 1 mM in absence of metal and in presence of 5 mM EDTA in 100 mM pH 7 MOPS buffer relative to enzyme activity in presence of calcium
[5] = target: T1, Alpha-1,2-mannosidase (BT_2199) (Bacteroides thetaiotaomicron); experiment: Activity of Bacteroides thetaiotaomicron GH92 alpha-mannosidase 2199 assessed as recovery of enzyme activity at 1 mM in presence of 7 mM V(3+) ions and in presence of 5 mM EGTA in 100 mM pH 7 MOPS buffer relative to enzyme activity in presence of calcium
[6] = target: T2, Alpha-1,2-mannosidase (BT_3990) (Bacteroides thetaiotaomicron); experiment: Activity of Bacteroides thetaiotaomicron GH92 alpha-mannosidase 3990 assessed as recovery of enzyme activity at 1 mM in presence of 7 mM Be(2+) ions and in presence of 5 mM EDTA in 100 mM pH 7 MOPS buffer relative to enzyme activity in presence of calcium
[7] = target: T1, Alpha-1,2-mannosidase (BT_2199) (Bacteroides thetaiotaomicron); experiment: Activity of Bacteroides thetaiotaomicron GH92 alpha-mannosidase 2199 assessed as recovery of enzyme activity at 1 mM in presence of 7 mM Sc(3+) ions and in presence of 5 mM EGTA in 100 mM pH 7 MOPS buffer relative to enzyme activity in presence of calcium
[8] = target: T2, Alpha-1,2-mannosidase (BT_3990) (Bacteroides thetaiotaomicron); experiment: Activity of Bacteroides thetaiotaomicron GH92 alpha-mannosidase 3990 assessed as recovery of enzyme activity at 1 mM in presence of 7 mM Zn(2+) ions and in presence of 5 mM EGTA in 100 mM pH 7 MOPS buffer relative to enzyme activity in presence of calcium

Activity [1] [%]	Activity [2] [%]	Activity [3] [%]	Activity [4] [%]	Activity [5] [%]	Activity [6] [%]	Activity [7] [%]	Activity [8] [%]	SMILES
63								OC[C@H]1O[C@H](OC[C@H]2O[C@H](O)[C@@H](O)[C@@H](O)[C@@H]2O)[C@@H](O)[C@@H](O)[C@@H]1O
	0	0	0	0	0	0	0	O=[N+]([O-])c1ccc(O[C@H]2O[C@H](CO)[C@@H](O)[C@H](O)[C@@H]2O)cc1
